Measurements as given in patent US20070098648A1, “Treating mouth sores caused by dental braces with blobs of hydrophilic gums” (priority 2002, published 2007).

Legend:
mouth sores = assay: experimentation with amoxicillin on conventional patches; format: in vivo; conditions: conventional amoxicillin powder for oral suspension, mixed into the patch and dried
Text: Because use of antibiotics, antibacterials, and other pharmaceutical antimicrobials causes adverse side affects, experimentation with these medications has been limited. […] Conventional amoxicillin powder for preparation of oral suspension was used, which includes sugars and other excipients. The sugars act as a binder to the oral patch. The oral suspension is mixed into the patch or blob and dried. Preferably, the amoxicillin powder is mixed into a stronger than normal liquid before being added to the patch or blob.

[1] = side effects of glycyrrhetinic acid in the quantities a person could use per day; format: in vivo, human; conditions: in the quantities that a person could use per day
Text: For medication to be placed in the patch or blob, any of the above-mentioned antimicrobials, or similar antimicrobials, may be used. […] The preferred quantity of glycyrrhetinic acid in each patch or blob is 5 to 7%.

| SMILES | effect of amoxicillin on conventional patches (mouth sores) | side effects [1] |
| --- | --- | --- |
| CC1(C)S[C@@H]2[C@H](NC(=O)[C@H](N)c3ccc(O)cc3)C(=O)N2[C@H]1C(=O)O [amoxicillin] | works quite well |  |
| CC1(C)[C@@H](O)CC[C@]2(C)[C@H]3C(=O)C=C4[C@@H]5C[C@@](C)(C(=O)O)CC[C@]5(C)CC[C@@]4(C)[C@]3(C)CC[C@@H]12 [glycyrrhetinic acid] |  | no side affects have been discovered |
